From publication PMC7156458, “Synthetic biology based construction of biological activity-related library of fungal decalin-containing diterpenoid pyrones” (Nature Communications, 2020)

Target: Aβ42 (Homo sapiens, UniProt P05067)
Assay: Th-T (thioflavin-T) assay of Aβ42 aggregation
Assay type: biochemical

Sequence of Aβ42 (P05067 672-713): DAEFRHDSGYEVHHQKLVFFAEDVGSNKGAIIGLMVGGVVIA

C=C1CCC2C(C)(CCC=C(C)C)C(O)CCC2(C)C1Cc1c(OC)oc(CO)c(C(=O)OC)c1=O (stereo not drawn) [Compound 13]
Fig. 7a Th-T reading, mean of three wells (column suffix _20, reading M101): 1.039 | Fig. 7a Th-T reading, mean of three wells (column suffix _20, reading M102): 1.036 | Fig. 7a Th-T reading, mean of three wells (column suffix _20, reading M103): 1.04 | Fig. 7a Th-T reading, mean of three wells (column suffix _20, reading M104): 1.043 | Fig. 7a Th-T reading, mean of three wells (column suffix _20, reading M105): 1.05 | Fig. 7a Th-T reading, mean of three wells (column suffix _20, reading M106): 1.043 | Th-T fluorescence, mean of three wells (Fig. 7a) (column suffix _50, measurement M19): 0.2105 | Th-T fluorescence, mean of three wells (Fig. 7a) (column suffix _50, measurement M20): 0.229 | Th-T fluorescence, mean of three wells (Fig. 7a) (column suffix _50, measurement M21): 0.2537 | Th-T fluorescence, mean of three wells (Fig. 7a) (column suffix _50, measurement M22): 0.2749 | Th-T fluorescence, mean of three wells (Fig. 7a) (column suffix _50, measurement M23): 0.2968 | Th-T fluorescence, mean of three wells (Fig. 7a) (column suffix _50, measurement M24): 0.3154 | Th-T fluorescence, mean of three wells (Fig. 7a) (column suffix _50, measurement M25): 0.3353 | Th-T fluorescence, mean of three wells (Fig. 7a) (column suffix _50, measurement M26): 0.3518 | Th-T fluorescence, mean of three wells (Fig. 7a) (column suffix _50, measurement M27): 0.3638 | Th-T fluorescence, mean of three wells (Fig. 7a) (column suffix _50, measurement M28): 0.3753 | Th-T fluorescence, mean of three wells (Fig. 7a) (column suffix _50, measurement M29): 0.3846 | Th-T assay signal, mean of three wells (Fig. 7a) (column suffix _50, reading M1): 0.5109 | Th-T assay signal, mean of three wells (Fig. 7a) (column suffix _50, reading M2): 0.3694 | Th-T assay signal, mean of three wells (Fig. 7a) (column suffix _50, reading M3): 0.2987 | Th-T assay signal, mean of three wells (Fig. 7a) (column suffix _50, reading M4): 0.2463 | Th-T assay signal, mean of three wells (Fig. 7a) (column suffix _50, reading M5): 0.2182 | Th-T assay signal, mean of three wells (Fig. 7a) (column suffix _50, reading M6): 0.2003 | Th-T assay signal, mean of three wells (Fig. 7a) (column suffix _50, reading M7): 0.1883 | Th-T assay signal, mean of three wells (Fig. 7a) (column suffix _50, reading M8): 0.1784 | Th-T assay signal, mean of three wells (Fig. 7a) (column suffix _50, reading M9): 0.17 | Th-T assay signal, mean of three wells (Fig. 7a) (column suffix _50, reading M10): 0.1689 | Th-T assay signal, mean of three wells (Fig. 7a) (column suffix _50, reading M11): 0.1659 | Th-T assay signal, mean of three wells (Fig. 7a) (column suffix _50, reading M12): 0.1664 | Th-T assay signal, mean of three wells (Fig. 7a) (column suffix _50, reading M13): 0.1648 | Th-T assay signal, mean of three wells (Fig. 7a) (column suffix _50, reading M14): 0.1691 | Th-T assay signal, mean of three wells (Fig. 7a) (column suffix _50, reading M15): 0.173 | Th-T assay signal, mean of three wells (Fig. 7a) (column suffix _50, reading M16): 0.1783 | Th-T assay signal, mean of three wells (Fig. 7a) (column suffix _50, reading M17): 0.1848 | Th-T assay signal, mean of three wells (Fig. 7a) (column suffix _50, reading M18): 0.1952 | Fig. 7a Th-T reading, mean of three wells (column suffix _50, reading M85): 0.4685 | Fig. 7a Th-T reading, mean of three wells (column suffix _50, reading M86): 0.4692 | Fig. 7a Th-T reading, mean of three wells (column suffix _50, reading M87): 0.4718 | Fig. 7a Th-T reading, mean of three wells (column suffix _50, reading M88): 0.4737 | Fig. 7a Th-T reading, mean of three wells (column suffix _50, reading M89): 0.4759 | Fig. 7a Th-T reading, mean of three wells (column suffix _50, reading M90): 0.4735 | Fig. 7a Th-T reading, mean of three wells (column suffix _50, reading M91): 0.4713 | Fig. 7a Th-T reading, mean of three wells (column suffix _50, reading M92): 0.4706 | Fig. 7a Th-T reading, mean of three wells (column suffix _50, reading M93): 0.4737 | Fig. 7a Th-T reading, mean of three wells (column suffix _50, reading M94): 0.4775 | Fig. 7a Th-T reading, mean of three wells (column suffix _50, reading M95): 0.4772 | Fig. 7a Th-T reading, mean of three wells (column suffix _50, reading M96): 0.4744 | Fig. 7a Th-T reading, mean of three wells (column suffix _50, reading M97): 0.4689 | Fig. 7a Th-T reading, mean of three wells (column suffix _50, reading M98): 0.4718 | Fig. 7a Th-T reading, mean of three wells (column suffix _50, reading M99): 0.4742 | Fig. 7a Th-T reading, mean of three wells (column suffix _50, reading M100): 0.4783 | Fig. 7a Th-T reading, mean of three wells (column suffix _50, reading M101): 0.4707 | Fig. 7a Th-T reading, mean of three wells (column suffix _50, reading M102): 0.471 | Fig. 7a Th-T reading, mean of three wells (column suffix _50, reading M103): 0.4747 | Fig. 7a Th-T reading, mean of three wells (column suffix _50, reading M104): 0.4762 | Fig. 7a Th-T reading, mean of three wells (column suffix _50, reading M105): 0.477 | Fig. 7a Th-T reading, mean of three wells (column suffix _50, reading M106): 0.4781 | Th-T fluorescence, mean of three wells (compound at 10, reading M41 of time course): 1.211 | Th-T fluorescence, mean of three wells (compound at 10, reading M42 of time course): 1.2969 | Th-T fluorescence, mean of three wells (compound at 10, reading M43 of time course): 1.3329 | Th-T fluorescence, mean of three wells (compound at 10, reading M44 of time course): 1.377 | Th-T fluorescence, mean of three wells (compound at 10, reading M45 of time course): 1.405 | Th-T fluorescence, mean of three wells (compound at 10, reading M46 of time course): 1.436 | Th-T fluorescence, mean of three wells (compound at 10, reading M47 of time course): 1.47 | Th-T fluorescence, mean of three wells (compound at 10, reading M48 of time course): 1.487 | Th-T fluorescence, mean of three wells (compound at 10, reading M49 of time course): 1.496 | Th-T fluorescence, mean of three wells (compound at 10, reading M50 of time course): 1.5062 | Th-T fluorescence, mean of three wells (compound at 10, reading M51 of time course): 1.523 | Th-T fluorescence, mean of three wells (compound at 10, reading M52 of time course): 1.537 | Th-T fluorescence, mean of three wells (compound at 10, reading M53 of time course): 1.531 | Th-T fluorescence, mean of three wells (compound at 10, reading M54 of time course): 1.542 | Th-T fluorescence, mean of three wells (compound at 10, reading M55 of time course): 1.541 | Th-T fluorescence, mean of three wells (compound at 10, reading M56 of time course): 1.545 | Th-T fluorescence, mean of three wells (compound at 10, reading M57 of time course): 1.551 | Th-T fluorescence, mean of three wells (compound at 10, reading M58 of time course): 1.551 | Th-T fluorescence, mean of three wells (compound at 10, reading M59 of time course): 1.549 | Th-T fluorescence, mean of three wells (compound at 10, reading M60 of time course): 1.541 | Th-T fluorescence, mean of three wells (compound at 10, reading M61 of time course): 1.554 | Th-T fluorescence, mean of three wells (compound at 10, reading M62 of time course): 1.56 | Th-T fluorescence, mean of three wells (compound at 20, reading M41 of time course): 0.3859 | Th-T fluorescence, mean of three wells (compound at 20, reading M42 of time course): 0.4228 | Th-T fluorescence, mean of three wells (compound at 20, reading M43 of time course): 0.4511 | Th-T fluorescence, mean of three wells (compound at 20, reading M44 of time course): 0.4829 | Th-T fluorescence, mean of three wells (compound at 20, reading M45 of time course): 0.5147 | Th-T fluorescence, mean of three wells (compound at 20, reading M46 of time course): 0.5564 | Th-T fluorescence, mean of three wells (compound at 20, reading M47 of time course): 0.5957 | Th-T fluorescence, mean of three wells (compound at 20, reading M48 of time course): 0.6248 | Th-T fluorescence, mean of three wells (compound at 20, reading M49 of time course): 0.6553 | Th-T fluorescence, mean of three wells (compound at 20, reading M50 of time course): 0.6948 | Th-T fluorescence, mean of three wells (compound at 20, reading M51 of time course): 0.7326 | Th-T fluorescence, mean of three wells (compound at 20, reading M52 of time course): 0.7726 | Th-T fluorescence, mean of three wells (compound at 20, reading M53 of time course): 0.8004 | Th-T fluorescence, mean of three wells (compound at 20, reading M54 of time course): 0.8343 | Th-T fluorescence, mean of three wells (compound at 20, reading M55 of time course): 0.8641 | Th-T fluorescence, mean of three wells (compound at 20, reading M56 of time course): 0.9063 | Th-T fluorescence, mean of three wells (compound at 20, reading M57 of time course): 0.941 | Th-T fluorescence, mean of three wells (compound at 20, reading M58 of time course): 0.9604 | Th-T fluorescence, mean of three wells (compound at 20, reading M59 of time course): 0.9808 | Th-T fluorescence, mean of three wells (compound at 20, reading M60 of time course): 0.9918 | Th-T fluorescence, mean of three wells (compound at 20, reading M61 of time course): 1.018 | Th-T fluorescence, mean of three wells (compound at 20, reading M62 of time course): 1.031 | Th-T fluorescence, mean of three wells (compound at 50, reading M41 of time course): 0.4483 | Th-T fluorescence, mean of three wells (compound at 50, reading M42 of time course): 0.4529 | Th-T fluorescence, mean of three wells (compound at 50, reading M43 of time course): 0.452 | Th-T fluorescence, mean of three wells (compound at 50, reading M44 of time course): 0.4555 | Th-T fluorescence, mean of three wells (compound at 50, reading M45 of time course): 0.4534 | Th-T fluorescence, mean of three wells (compound at 50, reading M46 of time course): 0.4569 | Th-T fluorescence, mean of three wells (compound at 50, reading M47 of time course): 0.4654 | Th-T fluorescence, mean of three wells (compound at 50, reading M48 of time course): 0.4625 | Th-T fluorescence, mean of three wells (compound at 50, reading M49 of time course): 0.4637 | Th-T fluorescence, mean of three wells (compound at 50, reading M50 of time course): 0.4613 | Th-T fluorescence, mean of three wells (compound at 50, reading M51 of time course): 0.4698 | Th-T fluorescence, mean of three wells (compound at 50, reading M52 of time course): 0.4696 | Th-T fluorescence, mean of three wells (compound at 50, reading M53 of time course): 0.4691
